{"source": "patent US20230123589A1", "about": "“MOLECULAR MOBILITY ENHANCER OR MOLECULAR DRYING ENHANCER” (TEKDRY INTERNATIONAL, INC., priority 2020, published 2023)", "test": "Evaluation of vapor diffusion (chemical indicators in 2-meter long 4-mm inner diameter polytetrafluoroethylene tube)", "assay_type": "physicochemical", "details": "50° C., less than 10 torr, 15-minute time period", "key": {"[1]": {"details": "introduced into chamber extension"}, "[2]": {"details": "introduced into process chamber"}}, "text": "A typical diffusion apparatus for conducting these evaluations includes a stainless-steel pressure chamber which is connected to a smaller stainless-steel extension chamber. Connection is made by means of a stainless-steel tube that contains a valve for isolating vapor flow between the vacuum chamber and the chamber extension. The chamber extension contains isolated compartments that admitted molecular mobility enhancer (MME) and/or liquid or solid agent components. The vacuum chamber and the chamber extension are independently heated. […] The isolated compartments within the chamber extension were independently heated. […] The chamber extension as a whole as well as the isolated compartments within the chamber extension are connected to MME and transport moiety sources via a valve and a conduit connected to a flow controller. The chamber extension is also outfitted with a door that can be used for placing solid agent sources within the extension. The entire system (vacuum chamber and chamber extension) is connected to a vacuum system e.g., (comprising a vacuum pump) capable of reducing the pressure and vaporizing the molecular mobility enhancer and liquid or solid transport moieties.\nThe tube and its contents were placed in the process chamber of the diffusion system. In this test the process chamber was heated to 50° C. […] The door to the diffusion system was closed and sealed. The diffusion system was evacuated to a pressure less than 10 torr. Multiple vaporization/diffusion cycles were performed over the course of a 15-minute time period. At the end of the process the diffusion system was brought to atmosphere and the tube and its contents were removed from the process chamber.\nThe tube and its contents were placed in the process chamber of the diffusion system. In this test the diffusion system was heated to 50° C. […] The door to the diffusion system was closed and sealed. The diffusion system including the chamber extension was evacuated to a pressure less than 10 torr. Multiple vaporization/diffusion cycles were performed over the course of a 15-minute time period."}
{"compound": "OO", "note": "[aqueous hydrogen peroxide (30 wt %), hydrogen peroxide]", "values": [{"measurement": "color change on chemical indicators: exposure of entire inner length of the tube to transport moiety vapor", "setting": "[1]", "value": "entire inner length of the tube had not been exposed"}, {"measurement": "color change on chemical indicators: exposure of entire inner length of the tube to transport moiety vapor", "setting": "[2]", "value": "entire inner length of the tube had not been exposed"}]}
{"compound": "CC(C)O", "note": "[isopropanol]", "values": [{"measurement": "color change on chemical indicators: exposure of entire inner length of the tube to transport moiety vapor", "setting": "[1]", "value": "entire inner length of the tube had not been exposed"}, {"measurement": "color change on chemical indicators: exposure of entire inner length of the tube to transport moiety vapor", "setting": "[2]", "value": "entire inner length of the tube had not been exposed"}]}
